Usually EC50 stands for the midpoint of the concentration-response curve.

One test concerns HCV replicon (NS5A1b) in Huh-7 cells. Put plainly: microbe, parasite or virus in culture. Format: cell-based. The note with it: Hepatitis C virus, 72 h; NS5A1b; HCV replicon-containing Huh-7 cells, three days; read-out: EC50 (μM) NS5A1b. How it is done:
Compounds claimed herein are tested for the ability to inhibit viral replication of the Hepatitis C replicon in cultured cells in which the HCV replicon construct has been incorporated. The HCV replicon system was described by Bartenschlager, et. al (Science, 285, pp. 110-113 (1999)). The replicon system is predictive of in vivo anti-HCV activity; compounds that are active in humans uniformly evidence activity in the replicon assay.
In this assay HCV replicon containing cells are treated with different concentrations of the test compound to ascertain the ability of the test compound to suppress replication of the HCV replicon. As a positive control, HCV replicon-containing cells are treated with different concentrations of interferon alpha, a known inhibitor of HCV replication. The replicon assay system includes Neomycin Phosphotransferase (NPT) as a component of the replicon itself in order to detect the transcription of replicon gene products in the host cell. Cells in which the HCV replicon is actively replicating have high levels of NPT; the level of NPT is proportional to HCV replication. […] The NPT level of each sample is measured using a captured ELISA.
A protocol for testing compounds for the ability to inhibit viral replication of the Hepatitis C replicon cultured cells in which the replicon construct has been incorporated, follows.
The HCV replicon contains, 5′-3′, the HCV-IRES, the neomycin phosphotransferase (neo) gene, the IRES of encephalomyocarditis virus, which directs translation of HCV sequences NS3 to NS5B, and the 3′-NTR. The sequence of the HCV replicon has been deposited in GenBank (Accession no. AJ242652).
The replicon is transfected into Huh-7 cells using standard methods such as electroporation.
The equipment and materials include, but are not limited to, Huh-7 HCV replicon-containing cells, maintenance media (DMEM (Dulbecco's modified Eagle media) supplemented with 10% FBS, L-glutamine, non-essential amino acids, penicillin (100 units/ml), streptomycin (100 micrograms/ml), and 500 micrograms/ml of Geneticin (G418), screening media (DMEM supplemented with 10% FBS, L-glutamine, non-essential amino acids, penicillin (100 units/ml) and streptomycin (100 micrograms/ml), 96 well tissue culture plates (flat bottom), 96 well plates (U bottom for drug dilution), Interferon alpha for positive control, fixation reagent (such as methanol: acetone), primary antibody (rabbit anti-NPTII), secondary antibody: Eu-N1 1, and enhancement solution.
HCV replicon-containing cells support high levels of viral RNA replicon replication when their density is suitable. Over-confluency causes decreased viral RNA replication. Therefore, cells must be kept growing in log phase in the presence of 500 micrograms/ml of G418. Generally, cells should be passed twice a week at 1:4-6 dilution. Cell maintenance is conducted as follows:
HCV replicon-containing cells are examined under a microscope to ensure that cells growing well. Cells are rinsed once with PBS and 2 ml trypsin is added. The cell/trypsin mixture is incubated at 37° C. in a CO2 incubator for 3-5 minutes. After incubation 10 ml of complete media is added to stop the trypsinization reaction. Cells are blown gently, put into a 15 ml tube, and spun at 1200 rpm for 4 minutes. The trypsin/medium solution is removed. Medium (5 ml) is added and the cells are mixed carefully. The cells are counted.
The cells are then seeded onto 96-well plates at a density of 6000-7500 cells/100 microliters/well (6-7.5×10^5 cells/10 ml/plate). The plates are then incubated at 37° C. in a 5% CO2 incubator.
Cells are examined under a microscope approximated 24 hours after seeding and prior to adding drugs. If counting and dilution were performed correctly, cells are 60-70% confluent and nearly all cells should attach and spread evenly in the well.
HCV replicon-containing cells are rinsed with once PBS once; 2 mls of trypsin are then added. Cells are incubated at 37° C. in a 5% CO2 incubator for 3-5 minutes. […]
Turning to `COC(=O)N[C@H](C(=O)N1CCC[C@H]1c1nc(-c2ccc(-c3cc4ccc3CCc3ccc(c(-c5c[nH]c([C@@H]6CCCN6C(=O)[C@@H](NC(=O)OC)C(C)C)n5)c3)CC4)cc2)c[nH]1)C(C)C` [Compound 47], the EC50 came out at 5.02 nM.

Regarding `COC(=O)N[C@H](C(=O)N1C[C@H](C)C[C@H]1c1nc2cc(-c3cc4ccc3CCc3ccc(c(-c5ccc6[nH]c([C@@H]7C[C@@H](C)CN7C(=O)[C@@H](NC(=O)OC)C(C)C)nc6c5)c3)CC4)ccc2[nH]1)C(C)C` [Compound 66], the EC50 was determined as 0.005 nM.

For `COC(=O)N[C@H](C(=O)N1[C@H](c2nc(-c3ccc(-c4cc5ccc4CCc4ccc(c(-c6ccc(-c7c[nH]c([C@@H]8C[C@@H]9CCCC[C@@H]9N8C(=O)[C@@H](NC(=O)OC)C(C)C)n7)cc6)c4)CC5)cc3)c[nH]2)C[C@@H]2CCCC[C@@H]21)C(C)C` [Compound 60], the EC50 came to 128 nM.

As for `COC(=O)N[C@H](C(=O)N1[C@H](c2nc3cc(-c4cc5ccc4CCc4ccc(c(-c6ccc7[nH]c([C@@H]8C[C@@H]9CCCC[C@@H]9N8C(=O)[C@@H](NC(=O)OC)C(C)C)nc7c6)c4)CC5)ccc3[nH]2)C[C@@H]2CCCC[C@@H]21)C(C)C` [Compound 43], the EC50 turned out to be 2.85 nM.

For the compound `C=CCOC(=O)N[C@H](C(=O)N1CCC[C@H]1c1nc(-c2ccc(-c3cc4ccc3CCc3ccc(c(-c5ccc(-c6c[nH]c([C@@H]7CCCN7C(=O)[C@@H](NC(=O)OCC=C)C(C)C)n6)cc5)c3)CC4)cc2)c[nH]1)C(C)C` [Compound 55], the concentration for a half-maximal effect (EC50) was more than 1000 nM.

Turning to `COC(=O)N[C@@H](CCC#N)C(=O)N1[C@H](c2nc3cc(-c4cc5ccc4CCc4ccc(c(-c6ccc7[nH]c([C@@H]8C[C@@H]9CCCC[C@@H]9N8C(=O)[C@H](CCC#N)NC(=O)OC)nc7c6)c4)CC5)ccc3[nH]2)C[C@@H]2CCCC[C@@H]21` [Compound 110], the EC50 came out at 0.006 nM.

As to `COC(=O)N[C@H](C(=O)N1CCC[C@H]1c1nc(-c2ccc(-c3cc4ccc3CCc3ccc(c(-c5ccc(-c6c[nH]c([C@@H]7CCCN7C(=O)[C@@H](NC(=O)OC)C(C)C)n6)cc5)c3)CC4)cc2)c[nH]1)C(C)C` [Compound 40], the EC50 was found to be 0.012 nM.

Turning to `COC(=O)N[C@@H](CCSC)C(=O)N1CCC[C@H]1c1nc2cc(-c3cc4ccc3CCc3ccc(c(-c5ccc6[nH]c([C@@H]7CCCN7C(=O)[C@H](CCSC)NC(=O)OC)nc6c5)c3)CC4)ccc2[nH]1` [Compound 50], the EC50 worked out at 8.41 nM.

Regarding `COC(=O)N[C@H](C(=O)N1CCC[C@H]1c1nc(-c2ccc(-c3cc4ccc3CCc3ccc(c(-c5ccc(-c6c[nH]c([C@@H]7CCCN7C(=O)[C@@H](NC(=O)OC)c7ccccc7)n6)cc5)c3)CC4)cc2)c[nH]1)c1ccccc1` [Compound 52], the EC50 stood at 9.83 nM.

`COC(=O)N[C@H](C(=O)N1[C@H](c2nc3cc(-c4cc5ccc4CCc4ccc(c(-c6ccc7[nH]c([C@@H]8C[C@@H]9CCCC[C@@H]9N8C(=O)[C@@H](NC(=O)OC)[C@@H](C)O)nc7c6)c4)CC5)ccc3[nH]2)C[C@@H]2CCCC[C@@H]21)[C@@H](C)O` [Compound 128]: the EC50 was 0.008 nM.

As to `COC(=O)N[C@@H](CCSC)C(=O)N1CCC[C@H]1c1nc(-c2ccc(-c3cc4ccc3CCc3ccc(c(-c5ccc(-c6c[nH]c([C@@H]7CCCN7C(=O)[C@H](CCSC)NC(=O)OC)n6)cc5)c3)CC4)cc2)c[nH]1` [Compound 53], the EC50 was 211 nM.

As for `COC(=O)N[C@H](C(=O)N1CCC[C@H]1c1nc2cc(-c3cc4ccc3CCc3ccc(c(-c5ccc6[nH]c([C@@H]7CCCN7C(=O)[C@@H](NC(=O)OC)C(C)C)nc6c5)c3)CC4)ccc2[nH]1)C(C)C` [Compound 45], the EC50 was less than 3.2 nM.

As for `COC(=O)N[C@H](C(=O)N1CCC[C@H]1c1ncc(-c2ccc(C34CC(c5ccc(-c6cnc([C@@H]7CCCN7C(=O)[C@@H](NC(=O)OC)C(C)C)[nH]6)cc5)(C3)C4)cc2)[nH]1)C(C)C` [Compound 44], the EC50 worked out at 4.08 nM.

`COC(=O)N[C@H](C(=O)N1[C@H](c2nc(-c3ccc(-c4cc5ccc4CCc4ccc(c(-c6ccc(-c7c[nH]c([C@@H]8C[C@@H]9CCCC[C@@H]9N8C(=O)[C@@H](NC(=O)OC)c8ccccc8)n7)cc6)c4)CC5)cc3)c[nH]2)C[C@@H]2CCCC[C@@H]21)c1ccccc1` [Compound 62]: the EC50 worked out at 75 nM.

For `COC(=O)N[C@H](C(=O)N1CCC[C@H]1c1nc2cc(-c3cc4ccc3CCc3ccc(c(-c5ccc6[nH]c([C@@H]7CCCN7C(=O)[C@@H](NC(=O)OC)c7ccccc7)nc6c5)c3)CC4)ccc2[nH]1)c1ccccc1` [Compound 49], the EC50 was 10.2 nM.

For `C=CCOC(=O)N[C@@H](CCSC)C(=O)N1CCC[C@H]1c1nc(-c2ccc(-c3cc4ccc3CCc3ccc(c(-c5ccc(-c6c[nH]c([C@@H]7CCCN7C(=O)[C@H](CCSC)NC(=O)OCC=C)n6)cc5)c3)CC4)cc2)c[nH]1` [Compound 57], the EC50 is more than 1000 nM.

Turning to `COC(=O)N[C@H](C(=O)N1CCC[C@H]1c1nc(-c2ccc(-c3cc4c(-c5c[nH]c([C@@H]6CCCN6C(=O)[C@@H](NC(=O)OC)C(C)C)n5)cc3CCc3ccc(cc3)CC4)cc2)c[nH]1)C(C)C` [Compound 46], the EC50 was less than 3.17 nM.

As for `COC(=O)N[C@H](C(=O)N1C(c2nc3ccc(-c4cc5ccc4CCc4ccc(c(-c6ccc7nc(C8C[C@@H]9CCCC[C@@H]9N8C(=O)[C@@H](NC(=O)OC)C(C)C)n(COC(=O)[C@@H](N)C(C)C)c7c6)c4)CC5)cc3n2COC(=O)[C@@H](N)C(C)C)C[C@@H]2CCCC[C@@H]21)C(C)C` (some centres unmarked) [Compound 130], the EC50 is 0.009 nM.

In the case of `C=CCOC(=O)N[C@H](C(=O)N1CCC[C@H]1c1nc(-c2ccc(-c3cc4ccc3CCc3ccc(c(-c5ccc(-c6c[nH]c([C@@H]7CCCN7C(=O)[C@@H](NC(=O)OCC=C)c7ccccc7)n6)cc5)c3)CC4)cc2)c[nH]1)c1ccccc1` [Compound 59], the EC50 is 548 nM.

Take `COC(=O)N1CCC[C@H]1C(=O)N1[C@H](c2nc(-c3ccc(-c4cc5ccc4CCc4ccc(c(-c6ccc(-c7c[nH]c([C@@H]8C[C@@H]9CCCC[C@@H]9N8C(=O)[C@@H]8CCCN8C(=O)OC)n7)cc6)c4)CC5)cc3)c[nH]2)C[C@@H]2CCCC[C@@H]21` [Compound 63]: the EC50 was 899 nM.

Take `C=CCOC(=O)N1CCC[C@H]1C(=O)N1CCC[C@H]1c1nc(-c2ccc(-c3cc4ccc3CCc3ccc(c(-c5ccc(-c6c[nH]c([C@@H]7CCCN7C(=O)[C@@H]7CCCN7C(=O)OCC=C)n6)cc5)c3)CC4)cc2)c[nH]1` [Compound 58]: the EC50 is more than 1000 nM.

For the compound `COC(=O)N1CCC[C@H]1C(=O)N1CCC[C@H]1c1nc(-c2ccc(-c3cc4ccc3CCc3ccc(c(-c5ccc(-c6c[nH]c([C@@H]7CCCN7C(=O)[C@@H]7CCCN7C(=O)OC)n6)cc5)c3)CC4)cc2)c[nH]1` [Compound 54], the EC50 is more than 1000 nM.

Regarding `COC(=O)N[C@@H](CCSC)C(=O)N1[C@H](c2nc(-c3ccc(-c4cc5ccc4CCc4ccc(c(-c6ccc(-c7c[nH]c([C@@H]8C[C@@H]9CCCC[C@@H]9N8C(=O)[C@H](CCSC)NC(=O)OC)n7)cc6)c4)CC5)cc3)c[nH]2)C[C@@H]2CCCC[C@@H]21` [Compound 61], the EC50 turned out to be 75.2 nM.

Still in this test, the particulars now being: Hepatitis C virus, Huh-7; Example 9 replicon assay; read-out: EC50 values in HCV replicon assay.
Consider `CC(C)(C)OC(=O)Nc1ccc(B2OC(C)(C)C(C)(C)O2)cc1NC(=O)OC(C)(C)C` [Compound 25, di-tert-butyl (4-(4,4,5,5-tetramethyl-1,3,2-dioxaborolan-2-yl)-1,2-phenylene)dicarbamate], for which the EC50 was not above 10000 nM.

Regarding `COC(=O)N[C@H](C(=O)N1CCC[C@H]1c1nc(-c2ccc(-c3cc4ccc3CCc3ccc(c(-c5ccc(-c6c[nH]c([C@@H]7CCCN7C(=O)[C@@H](NC(=O)OC)C(C)C)n6)cc5)c3)CC4)cc2)c[nH]1)C(C)C` [Compound 40], the EC50 was not above 10000 nM.

Regarding `CC(C)(C)OC(=O)N1[C@H](c2nc3ccc(B4OC(C)(C)C(C)(C)O4)cc3[nH]2)C[C@@H]2CCCC[C@@H]21` [Compound 16, (2S,3aS,7aS)-tert-butyl 2-(6-(4,4,5,5-tetramethyl-1,3,2-dioxaborolan-2-yl)-1H-benzo[d]imidazol-2-yl)octahydro-1H-indole-1-carboxylate], the EC50 was not above 10000 nM.
